Here are results for 23 molecules from patent US9527853B2, “Fused triazole derivatives as gamma secretase modulators” (Ares Trading S.A., priority 2012, dated 2016).

One assay concerns AβTotal. The experiment in a line: Amyloidβ peptide release (AβTotal) assay, AlphaLisa on supernatant of APPswe-HEK cells. Conditions: 24 hours, ratio Abtot versus Ab42. Format: cell-based, human. As to the method: (§1) Amyloidβ Peptide Release (Aβ42 & AβTotal) Assay to Determine IC50 Values.
(§2) Amyloidβ peptide release (Aβ42 & AβTotal) assay are performed in 384 well microtiter plates (Perkin Elmer AlphaPlate #6008350) in a final volume of 20 μl, using supernatant coming from APPswe-HEK cells exposed to test compounds. Compounds are dissolved in and diluted in 100% DMSO and incubated with APPswe-HEK cells for 24 hours a 37° C. in 5% CO2. The supernatant from APPswe-HEK cells are mixed with antibodies: for Aβ42 detection: AlphaLisa Amyloid β 1-42 Kit (Perkin Elmer AL203L) Anti-Amyloid β1-42-specific antibody acceptor beads, biotinylated anti-Amyloid “β1-42” antibody and streptavidin (SA) donor beads diluted in AlphaLisa buffer (to the instructions of the supplier). For Aβ total detection: Custom Anti-Amyloid βtotal acceptor beads (6E10 acceptor beads), biotinylated anti-Amyloid “β1-42” antibody (Perkin Elmer AL203L) and streptavidin (SA) donor beads diluted in AlphaLisa buffer (to the instructions of the supplier). After addition of supernatant to the antibody mix, the assay is incubated 4 h and 30 minutes. AmyloidP peptide release (Aβ42 & AβTotal) is measured with a Pherastar FS (BMG) multimode reader using the alphascreen module.
In general terms: Bead proximity is the source of the signal in Alpha formats.

Another assay relates to Aβ42. Put plainly: Amyloidβ peptide release (Aβ42) assay, AlphaLisa on supernatant of APPswe-HEK cells. Format: cell-based. The settings on record: Homo sapiens, 24 hours incubation with compound, read-out: Ab42 IC50 Ranges. As for the experimental part: as §1, §2

A word on the IC50: it is the concentration at which inhibition is half-maximal. `COc1cc(NC(=O)c2nnn3c2CCCC3c2cccc(C(F)(F)F)c2)ccc1-n1cnc(C)c1` (stereo not shown) [Example 22, N-(3-methoxy-4-(4-methyl-1H-imidazol-1-yl)phenyl)-7-(3-(trifluoromethyl)phenyl)-4,5,6,7-tetrahydro-[1,2,3]triazolo[1,5-a]pyridine-3-carboxamide]: the Abtot/Ab42 selectivity ranges result in the assay on AβTotal is recorded as “b (b: 100 fold > selectivity ≧ 50 fold)”. Besides, in the assay with Aβ42, the IC50 is 150 to 500 nM.

Take `COc1cc(NC(=O)c2nnn3c2COCC3c2ccc(Cl)cc2)ccc1-n1cnc(C)c1` (stereo not shown) [Example 38, 7-(4-chlorophenyl)-N-(3-methoxy-4-(4-methyl-1H-imidazol-1-yl)phenyl)-6,7-dihydro-4H-[1,2,3]triazolo[5,1-c][1,4]oxazine-3-carboxamide]: the Abtot/Ab42 selectivity ranges result with AβTotal is recorded as “b (b: 100 fold > selectivity ≧ 50 fold)”. Moreover, the 50% inhibitory concentration (IC50) with Aβ42 fell in the range of 150 to 500 nM.

Turning to `COc1cc(NC(=O)c2nnn3c2CCC3c2ccc(Cl)c(Cl)c2)ccc1-c1cnn(C)c1` (stereo not shown) [Example 35, 6-(3,4-dichlorophenyl)-N-(3-methoxy-4-(1-methyl-1H-pyrazol-4-yl)phenyl)-5,6-dihydro-4H-pyrrolo[1,2-c][1,2,3]triazole-3-carboxamide], the Abtot/Ab42 selectivity ranges entry in the assay with AβTotal was “c (c: 50 fold > selectivity ≧ 10 fold)”. The half-maximal inhibitory concentration (IC50) with Aβ42 lay in the range of 150 to 500 nM.

Consider `COc1cc(Nc2nnn3c2CCCC3c2ccccc2C(F)(F)F)ccc1-n1cnc(C)c1` (stereo not shown) [Example 2], for which the Abtot/Ab42 selectivity ranges entry in the assay with AβTotal is recorded as “a (a: selectivity ≧ 100 fold)”. Also, the IC50 with Aβ42 lay in the range of 150 to 500 nM.

Regarding `COc1cc(NC(=O)c2nnn3c2CCCC3c2ccccc2C(F)(F)F)ccc1-n1cnc(C)c1` (stereo not shown) [Example 18, N-(3-methoxy-4-(4-methyl-1Himidazol-1-yl)phenyl)-7-(2-(trifluoromethyl)phenyl)-4,5,6,7-tetrahydro-[1,2,3]triazolo[1,5-a]pyridine-3-carboxamide], the Abtot/Ab42 selectivity ranges entry in the assay with AβTotal is on record as “c (c: 50 fold > selectivity ≧ 10 fold)”. In addition, the half-inhibitory concentration (IC50) in the assay on Aβ42 lay in the range of 150 to 500 nM.

As for `Cc1cc(-c2ccc(NC(=O)c3nnn4c3CCCC4c3ccc(F)cc3)cc2)ccn1` (stereo not shown) [Example 21, 7-(4-fluorophenyl)-N-(4-(2-methylpyridin-4-yl)phenyl)-4,5,6,7-tetrahydro-[1,2,3]triazolo[1,5-a]pyridine-3-carboxamide], the Abtot/Ab42 selectivity ranges entry with AβTotal is “d (d: 10 fold > selectivity)”. Besides, the IC50 with Aβ42 was less than 1000 nM.

Regarding `COc1cc(N(C)C(=O)c2nnn3c2CCCC3c2ccc(Cl)cc2)ccc1-n1cnc(C)c1` (stereo not shown) [Example 48, 7-(4-chlorophenyl)-N-(3-methoxy-4-(4-methyl-1H-imidazol-1-yl)phenyl)-N-methyl-4,5,6,7-tetrahydro-[1,2,3]triazolo[1,5-a]pyridine-3-carboxamide], the Abtot/Ab42 selectivity ranges entry with AβTotal is recorded as “a (a: selectivity ≧ 100 fold)”. Moreover, the IC50 in the assay with Aβ42 was less than 1000 nM.

For `COc1cc(C(=O)Nc2nnn3c2CCCC3c2ccc(F)cc2)ccc1-n1cnc(C)c1` (stereo not shown) [Example 43, N-(7-(4-fluorophenyl)-4,5,6,7-tetrahydro-[1,2,3]triazolo[1,5-a]pyridin-3-yl)-3-methoxy-4-(4-methyl-1H-imidazol-1-yl)benzamide], the Abtot/Ab42 selectivity ranges result with AβTotal is reported as “a (a: selectivity ≧ 100 fold)”. The concentration for half-maximal inhibition (IC50) with Aβ42 is less than 1000 nM.

Take `COc1cc(NC(=O)c2nnn3c2CCC3c2ccc(F)cc2)ccc1-c1cnn(C)c1` (stereo not shown) [Example 37, 6-(4-fluorophenyl)-N-(3-methoxy-4-(1-methyl-1H-pyrazol-4-yl)phenyl)-5,6-dihydro-4H-pyrrolo[1,2-c][1,2,3]triazole-3-carboxamide]: the Abtot/Ab42 selectivity ranges entry in the assay on AβTotal was “c (c: 50 fold > selectivity ≧ 10 fold)”. The half-inhibitory concentration (IC50) in the assay on Aβ42 is less than 1000 nM.

With `COc1cc(C(=O)Nc2nnn3c2CCCC3c2ccc(Cl)cc2)ccc1-n1cnc(C)c1` (stereo not shown) [Example 40, N-(7-(4-chlorophenyl)-4,5,6,7-tetrahydro-[1,2,3]triazolo[1,5-a]pyridin-3-yl)-3-methoxy-4-(4-methyl-1H-imidazol-1-yl)benzamide], the Abtot/Ab42 selectivity ranges result in the assay with AβTotal is “b (b: 100 fold > selectivity ≧ 50 fold)”. For the same molecule, the IC50 in the assay with Aβ42 fell in the range of 150 to 500 nM.

On to `COc1cc(Nc2nnn3c2CCCC3c2ccc(Cl)cc2)ccc1-n1cnc(C)c1` (stereo not shown) [Example 4, 7-(4-chlorophenyl)-N-(3-methoxy-4-(4-methyl-1H-imidazol-1-yl)phenyl)-4,5,6,7-tetrahydro-[1,2,3]triazolo[1,5-a]pyridin-3-amine], for which the Abtot/Ab42 selectivity ranges entry in the assay on AβTotal is on record as “b (b: 100 fold > selectivity ≧ 50 fold)”. Also, the IC50 with Aβ42 lay in the range of 150 to 500 nM.

`Cc1cn(-c2ccc(NC(=O)c3nnn4c3CCCC4c3ccc(Cl)cc3)cc2C#N)cn1` (stereo not shown) [Example 13, 7-(4-chlorophenyl)-N-(3-cyano-4-(4-methyl-1H-imidazol-1-yl)phenyl)-4,5,6,7-tetrahydro-[1,2,3]triazolo[1,5-a]pyridine-3-carboxamide]: in the assay with AβTotal, the Abtot/Ab42 selectivity ranges entry was “c (c: 50 fold > selectivity ≧ 10 fold)”. The half-maximal inhibitory concentration (IC50) with Aβ42 is 150 to 500 nM.

As for `COc1cc(C(=O)Nc2nnn3c2CCCC3c2ccc(Cl)c(Cl)c2)ccc1-n1cnc(C)c1` (stereo not shown) [Example 41, N-(7-(3,4-dichlorophenyl)-4,5,6,7-tetrahydro-[1,2,3]triazolo[1,5-a]pyridin-3-yl)-3-methoxy-4-(4-methyl-1H-imidazol-1-yl)benzamide], the Abtot/Ab42 selectivity ranges entry with AβTotal is recorded as “b (b: 100 fold > selectivity ≧ 50 fold)”. For the same molecule, in the assay with Aβ42, the IC50 fell in the range of 150 to 500 nM.

Consider `COc1cc(NC(=O)c2nnn3c2CCCC3c2ccc(Cl)cc2)ccc1-c1ccnc(C)c1` (stereo not shown) [Example 16, 7-(4-chlorophenyl)-N-(3-methoxy-4-(2-methylpyridin-4-yl)phenyl)-4,5,6,7-tetrahydro-[1,2,3]triazolo[1,5-a]pyridine-3-carboxamide], for which the Abtot/Ab42 selectivity ranges entry with AβTotal is recorded as “c (c: 50 fold > selectivity ≧ 10 fold)”. Further, in the assay on Aβ42, the 50% inhibitory concentration (IC50) lay within 150 to 500 nM.

For `Cc1cn(-c2ccc(Nc3nnn4c3CCCC4c3ccc(F)cc3Cl)cc2F)cn1` (stereo not shown) [Example 3, 7-(2-chloro-4-fluorophenyl)-N-(3-fluoro-4-(4-methyl-1H-imidazol-1-yl)phenyl)-4,5,6,7-tetrahydro-[1,2,3]triazolo[1,5-a]pyridin-3-amine], the Abtot/Ab42 selectivity ranges result with AβTotal was “b (b: 100 fold > selectivity ≧ 50 fold)”. For the same molecule, the IC50 with Aβ42 was in the range of 150 to 500 nM.

Turning to `COc1cc(C(=O)Nc2nnn3c2CCC3c2ccc(F)cc2)ccc1-n1cnc(C)c1` (stereo not shown) [Example 46, N-(6-(4-fluorophenyl)-5,6-dihydro-4H-pyrrolo[1,2-c][1,2,3]triazol-3-yl)-3-methoxy-4-(4-methyl-1H-imidazol-1-yl)benzamide], in the assay with AβTotal, the Abtot/Ab42 selectivity ranges result is reported as “c (c: 50 fold > selectivity ≧ 10 fold)”. Further, the IC50 with Aβ42 lay within 500 to 1000 nM.

Regarding `COc1cc(C(=O)Nc2nnn3c2CCC3c2ccc(Cl)cc2)ccc1-n1cnc(C)c1` (stereo not shown) [Example 44, N-(6-(4-chlorophenyl)-5,6-dihydro-4H-pyrrolo[1,2-c][1,2,3]triazol-3-yl)-3-methoxy-4-(4-methyl-1H-imidazol-1-yl)benzamide], the Abtot/Ab42 selectivity ranges result in the assay with AβTotal was “c (c: 50 fold > selectivity ≧ 10 fold)”. The IC50 in the assay on Aβ42 lay within 150 to 500 nM.

On to `COc1cc(C(=O)Nc2nnn3c2CCCC3c2ccc(F)cc2Cl)ccc1-n1cnc(C)c1` (stereo not shown) [Example 39, N-(7-(2-chloro-4-fluorophenyl)-4,5,6,7-tetrahydro-[1,2,3]triazolo[1,5-a]pyridin-3-yl)-3-methoxy-4-(4-methyl-1H-imidazol-1-yl)benzamide], for which, in the assay with AβTotal, the Abtot/Ab42 selectivity ranges entry is on record as “b (b: 100 fold > selectivity ≧ 50 fold)”. Besides, the IC50 in the assay on Aβ42 is 150 to 500 nM.

Regarding `COc1cc(NC(=O)c2nnn3c2CCC3c2ccc(Cl)cc2)ccc1-n1cnc(C)c1` (stereo not shown) [Example 28, 6-(4-chlorophenyl)-N-(3-methoxy-4-(4-methyl-1H-imidazol-1-yl)phenyl)-5,6-dihydro-4H-pyrrolo[1,2-c][1,2,3]triazole-3-carboxamide], in the assay with AβTotal, the Abtot/Ab42 selectivity ranges result is on record as “b (b: 100 fold > selectivity ≧ 50 fold)”. In addition, the half-maximal inhibitory concentration (IC50) in the assay on Aβ42 is no more than 150 nM.

As for `COc1cc(NC(=O)c2nnn3c2CCC3c2ccccc2Cl)ccc1-c1cnn(C)c1` (stereo not shown) [Example 33, 6-(2-chlorophenyl)-N-(3-methoxy-4-(1-methyl-1H-pyrazol-4-yl)phenyl)-5,6-dihydro-4H-pyrrolo[1,2-c][1,2,3]triazole-3-carboxamide], the Abtot/Ab42 selectivity ranges result with AβTotal is given as “c (c: 50 fold > selectivity ≧ 10 fold)”. The half-maximal inhibitory concentration (IC50) in the assay with Aβ42 was 500 to 1000 nM.

`COc1cc(NC(=O)c2nnn3c2CCC[C@H]3c2ccc(Cl)cc2)ccc1-n1cnc(C)c1` [Example 24, (S)-7-(4-chlorophenyl)-N-(3-methoxy-4-(4-methyl-1H-imidazol-1-yl)phenyl)-4,5,6,7-tetrahydro-[1,2,3]triazolo[1,5-a]pyridine-3-carboxamide]: in the assay with AβTotal, the Abtot/Ab42 selectivity ranges result was “b (b: 100 fold > selectivity ≧ 50 fold)”. Further, in the assay with Aβ42, the IC50 is 150 to 500 nM.

As to `COc1cc(C(=O)Nc2nnn3c2CCC3c2ccc(F)cc2)ccc1-c1ccnc(C)c1` (stereo not shown) [Example 47, N-(6-(4-fluorophenyl)-5,-dihydro-4H-pyrrolo[1,2-c][1,2,3]triazol-3-yl)-3-methoxy-4-(2-methylpyridin-4-yl)benzamide], in the assay on AβTotal, the Abtot/Ab42 selectivity ranges entry is listed as “d (d: 10 fold > selectivity)”. In addition, in the assay with Aβ42, the IC50 was less than 1000 nM.

Turning to `Cc1cn(-c2ccc(NC(=O)c3nnn4c3CCC4c3ccc(Cl)cc3)cc2F)cn1` (stereo not shown) [Example 26, 6-(4-chlorophenyl)-N-(3-fluoro-4-(4-methyl-1H-imidazol-1-yl)phenyl)-5,6-dihydro-4H-pyrrolo[1,2-c][1,2,3]triazole-3-carboxamide], in the assay with AβTotal, the Abtot/Ab42 selectivity ranges entry is listed as “b (b: 100 fold > selectivity ≧ 50 fold)”. Moreover, in the assay with Aβ42, the concentration for half-maximal inhibition (IC50) lay in the range of 150 to 500 nM.
